# Experimental data from US20040110676A1, “Methods for modulating cell survival” (priority 2000, published 2004).
# Assays:
# [1] = tested on: HBL-100 cells; assay: Anoikis assay on poly-HEMA coated plates, annexin-V-FITC/PI; format: cell-based, human
# Source text: The human breast cell line HBL-100, transformed by the SV40 virus large T antigen with epithelial like morphology, was used to investigate the importance of the huntingtin serine residue at position 421 with respect to phosphorylation towards anoikis resistant, anchorage independent cell growth. HBL-100 cells were transfected with a 3949-15wt huntingtin vector construct, or a similar vector in which the normal serine at position 421 was mutated to an alanine residue. This mutation prevents phosphorylation from occurring at that site, which is presumed to be mediated by the kinase AKT/PKB. Cells were cultured in DMEM with 5% serum for 24 hours either on untreated tissue culture plastic or on poly-HEMA-coated plastic plates. Cells were harvested, counted and viability was assessed via annexin-V-FITC and propidium iodide (PI) staining.
# HBL-100 cells were transiently transfected with a FLAG-tagged 3949-15wt htt, or a FLAG-tagged (S-A) unphosphorylatable mutant htt. Wild-type cells were also treated with LY294002, a specific PI-3 kinase inhibitor, at a concentration of 10 μM, to determine whether inhibition of kinase function could abrogate the induction of anoikis. Western blot analysis confirming the expression of both full length and 3949 huntingtin in the FLAG-tagged constructs (FIG. 26B). The presence of endogenous huntingtin in the parental cells is also shown. […]
# [2] = target: AKT (Homo sapiens, UniProt P31749); assay: In vitro kinase reaction, phosphorylation of htt by AKT (autoradiography); format: biochemical; settings: S421A-mutant N-terminal one-third of htt as substrate, compared with wild-type, purified recombinant active AKT
# Sequence of AKT (P31749 whole entry): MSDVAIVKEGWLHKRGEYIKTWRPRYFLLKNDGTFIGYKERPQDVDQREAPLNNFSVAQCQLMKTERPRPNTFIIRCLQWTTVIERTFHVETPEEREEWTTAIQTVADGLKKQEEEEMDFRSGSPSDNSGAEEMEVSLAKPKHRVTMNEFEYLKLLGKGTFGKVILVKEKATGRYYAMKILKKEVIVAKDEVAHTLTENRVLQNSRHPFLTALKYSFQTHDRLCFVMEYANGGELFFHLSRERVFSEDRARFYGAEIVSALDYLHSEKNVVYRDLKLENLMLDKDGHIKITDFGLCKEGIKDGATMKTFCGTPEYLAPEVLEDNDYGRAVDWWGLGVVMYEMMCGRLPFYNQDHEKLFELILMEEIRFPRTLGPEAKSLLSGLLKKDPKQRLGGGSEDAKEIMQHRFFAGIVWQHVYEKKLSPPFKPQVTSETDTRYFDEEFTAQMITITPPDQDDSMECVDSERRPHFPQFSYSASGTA
# Source text: Serine 421 of huntingtin can be phosphorylated by purified recombinant active AKT in vitro (FIG. 18). Immunoprecipitated recombinant protein containing the N-terminal one-third of htt was used as a substrate for AKT. Phosphorylation was detected by autoradiography since radiolabelled ATP was a component of the in vitro kinase reaction. When serine 421 was mutated to alanine (S421A), a non-phosphorylatable amino acid, 64% of the phosphorylation signal on huntingtin was ablated. […] Other sites for AKT phosphorylation are threonines 1024 and 2068.
# [3] = tested on: spermatogenic cells; assay: Testicular histology, ultrastructure and TUNEL labeling; format: in vivo; settings: endogenous htt expression increased to 100% of normal levels
# Protocol: Testes were removed from anesthetized animals and immediately placed in fixative (1.5% paraformaldehyde, 1.5% glutaraldehyde, 0.1 M Na cacodylate, pH 7.3). The capsules were nicked with a scalpel and then the organs left to fix for approximately 1 hour. The testes were cut into small pieces and fixed for an additional hour. The pieces were washed with buffer, post-fixed in buffered 1% OSO4 on ice for 1 hour, washed with dH2O, and stained en bloc in 1% aqueous uranyl acetate. The samples were washed with dH2O, dehydrated through a graded concentration series of ethyl alcohols, and then embedded in JEMBED™812 (J. B. EM Services Inc., Point-Claire, Quebec).
# For histological analysis, thick sections (1 μm) were stained with toluidine blue and evaluated on a Zeiss Axiophot microscope. For ultrastructural analysis, thin sections were cut on an ultramicrotome, stained with lead citrate and uranyl acetate, and then viewed and photographed on a Philips 300 electron microscope operated at 60 kV.
# TUNEL™ labeling (Boehringer Mannheim) was performed using standard techniques on frozen sections of testes that were lightly immersion fixed in 3% paraformaldehyde. […]
# The cellular effect of the htt expression was determined by analyzing the testicular morphology of YAC rescued htt knockout mice. […]
# TUNEL™ staining was used to quantitate apoptosis in the YAC rescued transgenic mice. […]
# [4] = tested on: NT2 cells; assay: HIP-1-induced cell death, morphology scoring; format: cell-based, human; settings: NT2 cells co-transfected with HIP-1, vs control protein PK, p<0.01
# Protocol: HIP-1-induced toxicity was used to assess whether the C-terminus of htt confers protection against a toxic protein-mediated cell death, in addition to its effect on tamoxifen-induced death. NT2 cells were co-transfected with mutant HIP-1 and the C-terminus, or HIP-1 and the control pyruvate kinase cDNA, using lipofectamine (GibcoBRL). Cell death was measured by morphological changes using co-transfection of a plasmid containing the LacZ gene, as described herein. […] Thus, the protective activity of htt C-terminus may have a functional role in HIP-1-mediated cell death in vivo.
# [5] = tested on: truncated mutant htt with 128 CAG repeats in HEK 293T cells; assay: Mutant htt aggregate formation, immunofluorescence; format: cell-based, human; settings: vs LacZ control
# Protocol: The C-terminus of htt was co-transfected with mutant htt and aggregate formation was induced with tamoxifen or HIP-1 expression as described herein. HEK 293T cells were transfected with truncated mutant htt with 128 CAG repeats and processed for immunofluorescence by growing cells on glass coverslips and transfecting at 30% confluency using a standard calcium phosphate protocol. At 48 hours post-transfection, the cells were treated with 35 μM tamoxifen (Sigma) for 1 hour to induce aggregate formation, then processed for immunofluorescence. The cells were fixed in 4% paraformaldehyde/PBS, permeabilised in 0.5% Triton X-100/PBS for 5 min, then incubated with anti-htt antibody MAB2166 (Chemicon) (1:2500 dilution) diluted in 0.4% BSA/PBS. Secondary antibodies conjugated to FITC (Jackson Laboratories) were used at 1:600-1:800 dilutions, and DAPI (4′,6′-diamindino-2-phenylindole, Sigma) was used as a nuclear counter-stain. Appropriate control experiments were performed to determine the specificity of the antibodies, including secondary antibody only and mock transfected cells. The cells were viewed with a Zeiss (Axioscope) microscope, digitally captured with a CCD camera (Princeton Instrument Inc.) and the images were colourised and overlapped using the Eclipse (Empix Imaging Inc.) software program. […]
# [6] = tested on: HEK 293T cells; assay: MTT (WST-1) cell viability assay, tamoxifen-induced cell death; format: cell-based, human; settings: transfected HEK 293T cells, tamoxifen 4 hours, compared with LacZ control
# Protocol: The survival effect of htt was measured in vitro using the MTT assay, in which a reduction in mitochondrial viability is indicative of cell death. Human embryonic kidney (HEK) 293T cells were seeded at a density of 5×10^4 cells into 96-well plates and transfected with 0.1 μg htt or LacZ DNA using a standard calcium phosphate protocol (Hackam et al. (1998) J Cell Biol. 141: 1097-105). Transfected cells in 96-well plates were treated at 48 hours post-transfection with a various concentrations of tamoxifen, a cell permeable compound that leads to caspase activation and cell death, for 4 hours. Cell viability was measured, […], by incubating the cells for 2 hours in a 1:10 dilution of WST-1 reagent (Boehringer Mannheim) and release of formazan from mitochondria was quantified by the MTT assay at 450 nm using an ELISA plate reader (Dynatech Laboratories). Mock transfected, vector only and LacZ transfected cells served as controls for transfection-related toxicity. Statistical analyses of the cell death data were performed using one-way ANOVA and Newman-Keuls post-comparison tests.
# [7] = tested on: NT2 cells; assay: Mutant htt (HD138)-induced cell death, apoptotic morphology scoring; format: cell-based, human; settings: NT2 cells co-transfected with HD138, tamoxifen stimulus, vs pyruvate kinase control, p=0.002
# Protocol: Mutant htt protein (HD138) was co-transfected with control protein, pyruvate kinase (PK), or with htt C-terminus (C-ter) into NT2 cells (a human neuronal precursor cell line) at 40% density using lipofectamine (GibcoBRL), and cell death in response to tamoxifen stimulus was measured. Cell death was quantified in NT2 cells by co-transfection of the expression constructs with a plasmid containing the LacZ gene at a 4:1 ratio, and the cells were stained for β-galactosidase activity at 24 hours post-transfection using standard procedures. The survival effect of the htt protein was assessed by incubating transfected cells with the pro-apoptotic drug tamoxifen for 4 hrs at various concentrations. An apoptotic morphology was scored as blue-staining cells that were rounded up, blebbed and condensed, which were clearly distinguished from viable cells that were flat and had neurite-like extensions. The cell death data was analyzed for statistical significance using one-way ANOVA and Newman-Keuls post-comparison tests.
# [8] = tested on: immunoprecipitated recombinant protein containing the N-terminal one-third of htt
# Sequence of immunoprecipitated recombinant protein containing the N-terminal one-third of htt (chain, as listed by the source): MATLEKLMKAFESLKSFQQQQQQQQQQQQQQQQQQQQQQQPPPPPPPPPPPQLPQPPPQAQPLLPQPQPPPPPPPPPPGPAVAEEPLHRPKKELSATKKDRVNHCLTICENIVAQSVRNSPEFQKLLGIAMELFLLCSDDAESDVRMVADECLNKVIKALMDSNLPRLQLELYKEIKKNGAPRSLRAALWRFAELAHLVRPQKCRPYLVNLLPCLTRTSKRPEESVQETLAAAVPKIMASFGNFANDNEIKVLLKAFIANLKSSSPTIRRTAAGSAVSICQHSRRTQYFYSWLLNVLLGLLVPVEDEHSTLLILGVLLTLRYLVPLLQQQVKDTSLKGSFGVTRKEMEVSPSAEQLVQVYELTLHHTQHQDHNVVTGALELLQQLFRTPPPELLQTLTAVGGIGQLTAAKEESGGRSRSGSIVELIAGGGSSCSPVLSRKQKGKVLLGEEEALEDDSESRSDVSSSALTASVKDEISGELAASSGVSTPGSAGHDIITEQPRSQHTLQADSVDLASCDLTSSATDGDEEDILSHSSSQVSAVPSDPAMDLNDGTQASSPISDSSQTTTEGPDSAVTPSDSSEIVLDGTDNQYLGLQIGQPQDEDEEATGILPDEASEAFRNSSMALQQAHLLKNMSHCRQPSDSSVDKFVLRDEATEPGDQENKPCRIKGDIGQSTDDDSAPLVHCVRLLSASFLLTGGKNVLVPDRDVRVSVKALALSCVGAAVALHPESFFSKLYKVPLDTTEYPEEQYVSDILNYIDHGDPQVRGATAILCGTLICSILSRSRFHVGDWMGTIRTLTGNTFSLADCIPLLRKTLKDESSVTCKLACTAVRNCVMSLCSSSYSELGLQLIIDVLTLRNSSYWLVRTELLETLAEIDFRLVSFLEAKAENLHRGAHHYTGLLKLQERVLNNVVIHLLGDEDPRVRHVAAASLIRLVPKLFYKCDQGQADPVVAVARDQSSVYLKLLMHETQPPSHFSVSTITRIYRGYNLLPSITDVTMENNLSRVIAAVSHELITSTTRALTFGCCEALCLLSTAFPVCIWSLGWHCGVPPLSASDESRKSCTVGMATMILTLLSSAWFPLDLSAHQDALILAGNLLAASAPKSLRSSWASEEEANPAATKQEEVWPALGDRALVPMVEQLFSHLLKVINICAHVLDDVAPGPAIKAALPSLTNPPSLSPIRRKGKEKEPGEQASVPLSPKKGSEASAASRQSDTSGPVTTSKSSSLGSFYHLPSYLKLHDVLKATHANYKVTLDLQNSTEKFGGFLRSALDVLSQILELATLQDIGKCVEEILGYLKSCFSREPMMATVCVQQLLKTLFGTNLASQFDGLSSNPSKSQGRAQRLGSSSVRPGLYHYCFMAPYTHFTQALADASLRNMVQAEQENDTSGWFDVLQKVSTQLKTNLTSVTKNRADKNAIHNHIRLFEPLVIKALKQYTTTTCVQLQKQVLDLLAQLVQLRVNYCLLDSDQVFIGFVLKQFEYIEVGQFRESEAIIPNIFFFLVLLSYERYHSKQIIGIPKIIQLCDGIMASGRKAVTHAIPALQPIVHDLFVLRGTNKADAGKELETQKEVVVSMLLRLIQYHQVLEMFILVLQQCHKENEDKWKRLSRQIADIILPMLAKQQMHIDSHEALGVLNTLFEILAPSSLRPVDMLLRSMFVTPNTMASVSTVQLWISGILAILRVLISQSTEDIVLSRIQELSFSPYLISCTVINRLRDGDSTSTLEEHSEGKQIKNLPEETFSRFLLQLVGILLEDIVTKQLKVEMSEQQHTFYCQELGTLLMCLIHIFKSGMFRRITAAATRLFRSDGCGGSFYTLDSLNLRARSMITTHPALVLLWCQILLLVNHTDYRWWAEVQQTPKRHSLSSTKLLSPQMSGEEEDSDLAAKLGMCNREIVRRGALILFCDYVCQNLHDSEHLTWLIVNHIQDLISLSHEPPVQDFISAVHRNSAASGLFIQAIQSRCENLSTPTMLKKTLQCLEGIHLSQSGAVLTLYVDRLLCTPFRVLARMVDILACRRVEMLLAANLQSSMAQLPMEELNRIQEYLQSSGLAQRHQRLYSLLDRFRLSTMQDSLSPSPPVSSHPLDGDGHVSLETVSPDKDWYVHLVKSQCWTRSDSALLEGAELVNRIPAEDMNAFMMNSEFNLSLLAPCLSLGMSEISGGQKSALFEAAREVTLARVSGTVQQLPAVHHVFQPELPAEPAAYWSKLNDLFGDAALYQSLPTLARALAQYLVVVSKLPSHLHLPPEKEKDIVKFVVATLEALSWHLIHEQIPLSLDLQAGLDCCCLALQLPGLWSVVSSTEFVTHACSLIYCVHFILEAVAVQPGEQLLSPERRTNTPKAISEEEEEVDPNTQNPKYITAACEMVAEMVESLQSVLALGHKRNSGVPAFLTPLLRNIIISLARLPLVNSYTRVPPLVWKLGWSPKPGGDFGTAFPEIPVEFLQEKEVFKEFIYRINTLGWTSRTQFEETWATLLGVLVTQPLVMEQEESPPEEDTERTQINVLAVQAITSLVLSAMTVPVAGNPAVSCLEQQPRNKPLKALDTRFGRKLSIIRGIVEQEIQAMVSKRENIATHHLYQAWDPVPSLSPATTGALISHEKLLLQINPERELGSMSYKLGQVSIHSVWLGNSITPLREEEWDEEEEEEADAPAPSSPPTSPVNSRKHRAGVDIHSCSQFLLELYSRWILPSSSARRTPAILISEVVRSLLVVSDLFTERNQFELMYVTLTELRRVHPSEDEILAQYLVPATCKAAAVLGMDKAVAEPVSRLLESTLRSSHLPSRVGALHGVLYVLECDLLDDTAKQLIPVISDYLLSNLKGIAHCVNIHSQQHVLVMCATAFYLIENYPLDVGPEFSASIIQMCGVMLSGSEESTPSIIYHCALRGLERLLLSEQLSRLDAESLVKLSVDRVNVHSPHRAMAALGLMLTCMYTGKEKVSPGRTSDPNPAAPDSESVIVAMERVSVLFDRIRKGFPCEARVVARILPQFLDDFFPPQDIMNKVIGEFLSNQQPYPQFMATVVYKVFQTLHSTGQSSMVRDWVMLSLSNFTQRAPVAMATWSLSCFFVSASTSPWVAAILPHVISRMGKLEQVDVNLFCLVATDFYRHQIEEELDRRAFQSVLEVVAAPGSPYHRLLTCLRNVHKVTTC
# [9] = tested on: recombinant N-terminal one-third of htt with serine 421 mutated to alanine (S421A)
# Sequence of recombinant N-terminal one-third of htt with serine 421 mutated to alanine (S421A) (chain, as listed by the source S421A): as the sequence (chain, as listed by the source) above, with S421A counted along it
substance,measurement,setting,value
"S421A: htt with serine 421 replaced by alanine, unphosphorylatable",anoikis resistant growth in detached state (kinase inhibition study),"[1]; HBL-100 cells transiently transfected with FLAG-tagged constructs, LY294002 10 μM",grew poorly in a detached state
same,"anoikis resistance, growth attached or detached","[1]; transfected HBL-100 cells, 24 hours, poly-HEMA",behaved similarly to untransfected cells
same,phosphorylation signal on huntingtin ablated,[2],64%
endogenous htt: murine wild-type htt expressed from the Hdh gene,effect on degenerative testicular phenotype of YAC72 mice,[3],completely rescued the degenerative testicular phenotype
"htt C-terminus: C-terminal fragment of huntingtin, e.g. amino acids 585-3144 of SEQ ID NO: 1, expressed by transfection",HIP-1 mediated cell death,[4],reduced HIP-1 mediated cell death
same,number of aggregates formed by truncated mutant htt (1955-128),[5]; aggregates induced by HIP-1 expression,reduces the number of aggregates
same,number of aggregates formed by truncated mutant htt (1955-128),"[5]; aggregates induced by tamoxifen stimulus (35 μM, 1 hour)",reduces the number of aggregates
same,tamoxifen-induced cell death (mitochondrial viability),[6],protects HEK 293T cells from tamoxifen-induced cell death
same,HD138-dependent cell death,[7],reduced HD138-dependent cell death
purified recombinant active AKT,phosphorylation detected by autoradiography (in vitro kinase reaction with radiolabelled ATP),[8],Serine 421 of huntingtin can be phosphorylated by purified recombinant active AKT in vitro
same,"phosphorylation signal ablated (autoradiography, in vitro kinase reaction)",[9],64% of the phosphorylation signal on huntingtin was ablated
